Measurements: ChEMBL document CHEMBL3991601, “The target landscape of clinical kinase drugs” (Science, 2017)
Activity calls are given as the source filed them. Cut-off read from the data, not from the text of the source, for most assays here: actives have a measured Kd and inactives only a lower limit.

Assays:
[1] = target: MAP kinase-activated protein kinase 2 (Homo sapiens, UniProt P49137)
[2] = target: Cyclin-dependent kinase 17 (Homo sapiens, UniProt Q00537)
[3] = target: ATP-dependent RNA helicase DDX3X (Homo sapiens, UniProt O00571)
Chain of ATP-dependent RNA helicase DDX3X (O00571 whole entry): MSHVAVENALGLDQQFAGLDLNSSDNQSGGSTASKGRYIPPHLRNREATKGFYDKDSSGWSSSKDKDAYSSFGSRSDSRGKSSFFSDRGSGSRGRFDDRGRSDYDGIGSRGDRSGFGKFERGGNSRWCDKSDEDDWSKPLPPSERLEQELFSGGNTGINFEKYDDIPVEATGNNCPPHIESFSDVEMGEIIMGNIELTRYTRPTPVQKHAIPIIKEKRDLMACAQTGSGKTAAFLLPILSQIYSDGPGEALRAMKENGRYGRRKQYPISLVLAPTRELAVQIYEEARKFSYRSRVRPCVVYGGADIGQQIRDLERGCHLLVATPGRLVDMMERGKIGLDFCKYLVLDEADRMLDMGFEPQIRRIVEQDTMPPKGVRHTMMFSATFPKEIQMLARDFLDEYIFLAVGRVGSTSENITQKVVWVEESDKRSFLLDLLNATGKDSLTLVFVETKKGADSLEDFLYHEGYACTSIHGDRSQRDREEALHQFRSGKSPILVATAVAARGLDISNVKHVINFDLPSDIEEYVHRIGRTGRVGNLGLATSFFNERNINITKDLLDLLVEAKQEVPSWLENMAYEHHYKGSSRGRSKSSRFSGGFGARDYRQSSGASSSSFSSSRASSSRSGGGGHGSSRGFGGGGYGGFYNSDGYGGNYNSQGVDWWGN

[4] = target: U5 small nuclear ribonucleoprotein 200 kDa helicase (Homo sapiens, UniProt O75643)
[5] = target: T1, Serine/threonine-protein kinase LATS1 (Homo sapiens, UniProt O95835)
T1 sequence (O95835 whole entry): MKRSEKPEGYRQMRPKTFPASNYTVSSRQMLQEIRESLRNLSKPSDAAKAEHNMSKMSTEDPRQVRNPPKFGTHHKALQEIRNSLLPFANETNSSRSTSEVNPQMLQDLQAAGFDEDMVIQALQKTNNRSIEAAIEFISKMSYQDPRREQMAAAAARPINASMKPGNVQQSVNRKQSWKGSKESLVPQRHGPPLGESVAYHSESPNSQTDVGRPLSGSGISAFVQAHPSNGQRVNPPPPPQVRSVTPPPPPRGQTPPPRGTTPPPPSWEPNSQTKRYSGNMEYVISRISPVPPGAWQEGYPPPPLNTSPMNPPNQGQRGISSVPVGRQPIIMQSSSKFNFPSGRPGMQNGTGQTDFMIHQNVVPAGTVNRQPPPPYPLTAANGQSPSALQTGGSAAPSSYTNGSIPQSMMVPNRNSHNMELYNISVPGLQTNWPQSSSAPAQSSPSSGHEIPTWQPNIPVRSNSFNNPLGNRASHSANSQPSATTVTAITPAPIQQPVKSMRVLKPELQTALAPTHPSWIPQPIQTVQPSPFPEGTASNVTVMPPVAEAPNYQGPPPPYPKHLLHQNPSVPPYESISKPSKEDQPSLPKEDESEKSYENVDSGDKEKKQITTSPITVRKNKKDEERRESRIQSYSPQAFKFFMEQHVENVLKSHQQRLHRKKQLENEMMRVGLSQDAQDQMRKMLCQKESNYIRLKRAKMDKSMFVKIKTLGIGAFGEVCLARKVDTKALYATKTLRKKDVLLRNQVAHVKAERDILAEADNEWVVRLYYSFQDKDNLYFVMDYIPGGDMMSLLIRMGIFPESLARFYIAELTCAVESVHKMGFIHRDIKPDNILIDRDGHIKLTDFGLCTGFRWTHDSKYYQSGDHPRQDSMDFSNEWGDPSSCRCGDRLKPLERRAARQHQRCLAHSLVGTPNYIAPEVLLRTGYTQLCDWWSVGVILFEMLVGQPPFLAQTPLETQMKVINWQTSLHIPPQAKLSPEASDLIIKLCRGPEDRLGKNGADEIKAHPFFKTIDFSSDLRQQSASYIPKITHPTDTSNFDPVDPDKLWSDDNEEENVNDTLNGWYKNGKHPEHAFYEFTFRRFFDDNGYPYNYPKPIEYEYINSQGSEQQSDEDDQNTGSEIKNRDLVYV

[6] = target: Myosin light chain kinase, smooth muscle (Homo sapiens, UniProt Q15746)
Chain of Myosin light chain kinase, smooth muscle (Q15746 whole entry, the tested form may be a part): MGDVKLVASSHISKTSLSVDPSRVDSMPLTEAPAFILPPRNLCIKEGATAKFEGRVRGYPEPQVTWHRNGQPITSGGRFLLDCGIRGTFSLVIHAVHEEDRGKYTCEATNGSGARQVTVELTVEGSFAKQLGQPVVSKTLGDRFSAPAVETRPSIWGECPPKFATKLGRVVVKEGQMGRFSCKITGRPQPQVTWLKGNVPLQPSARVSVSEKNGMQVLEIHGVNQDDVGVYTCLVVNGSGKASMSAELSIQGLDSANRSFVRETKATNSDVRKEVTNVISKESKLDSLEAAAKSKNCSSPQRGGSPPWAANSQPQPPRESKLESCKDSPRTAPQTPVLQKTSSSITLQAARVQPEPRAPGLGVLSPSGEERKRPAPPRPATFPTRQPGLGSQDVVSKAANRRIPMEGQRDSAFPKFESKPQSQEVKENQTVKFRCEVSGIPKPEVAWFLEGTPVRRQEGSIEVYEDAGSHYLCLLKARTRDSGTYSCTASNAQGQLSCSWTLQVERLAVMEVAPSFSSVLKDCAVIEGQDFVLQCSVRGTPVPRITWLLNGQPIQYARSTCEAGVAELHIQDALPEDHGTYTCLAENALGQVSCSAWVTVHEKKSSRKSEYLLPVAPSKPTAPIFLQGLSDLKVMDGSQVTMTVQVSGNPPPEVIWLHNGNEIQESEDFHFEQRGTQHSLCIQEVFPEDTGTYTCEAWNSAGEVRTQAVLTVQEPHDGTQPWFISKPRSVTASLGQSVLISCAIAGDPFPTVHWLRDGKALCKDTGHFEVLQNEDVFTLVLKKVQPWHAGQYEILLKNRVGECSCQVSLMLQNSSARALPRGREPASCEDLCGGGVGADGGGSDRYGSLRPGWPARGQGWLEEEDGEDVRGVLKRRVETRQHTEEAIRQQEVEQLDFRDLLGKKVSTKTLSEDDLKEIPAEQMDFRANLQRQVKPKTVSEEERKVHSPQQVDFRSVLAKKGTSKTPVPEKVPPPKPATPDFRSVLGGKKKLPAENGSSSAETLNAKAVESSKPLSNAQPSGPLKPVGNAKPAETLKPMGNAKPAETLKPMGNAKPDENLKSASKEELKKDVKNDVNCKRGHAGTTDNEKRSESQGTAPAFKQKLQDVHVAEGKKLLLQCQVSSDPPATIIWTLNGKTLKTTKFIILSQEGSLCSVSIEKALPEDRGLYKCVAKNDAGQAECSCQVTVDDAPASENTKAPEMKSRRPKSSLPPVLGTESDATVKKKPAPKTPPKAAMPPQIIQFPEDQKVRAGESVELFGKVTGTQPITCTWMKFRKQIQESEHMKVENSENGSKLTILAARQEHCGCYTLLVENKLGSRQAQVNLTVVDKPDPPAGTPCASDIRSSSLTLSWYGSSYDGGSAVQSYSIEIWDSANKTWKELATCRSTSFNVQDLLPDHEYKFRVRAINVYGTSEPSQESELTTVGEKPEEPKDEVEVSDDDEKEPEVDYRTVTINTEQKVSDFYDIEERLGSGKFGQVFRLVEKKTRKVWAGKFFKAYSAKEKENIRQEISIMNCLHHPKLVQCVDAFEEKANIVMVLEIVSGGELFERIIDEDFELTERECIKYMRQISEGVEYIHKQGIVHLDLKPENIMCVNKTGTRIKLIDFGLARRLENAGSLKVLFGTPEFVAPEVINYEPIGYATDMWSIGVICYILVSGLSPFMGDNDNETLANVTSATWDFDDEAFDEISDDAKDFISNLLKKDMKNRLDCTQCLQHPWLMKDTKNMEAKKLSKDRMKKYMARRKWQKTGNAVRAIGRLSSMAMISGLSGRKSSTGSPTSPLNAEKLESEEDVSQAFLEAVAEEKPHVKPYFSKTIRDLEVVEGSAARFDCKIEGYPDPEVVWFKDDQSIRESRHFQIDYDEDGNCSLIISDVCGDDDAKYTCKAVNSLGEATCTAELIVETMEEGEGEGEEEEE

LIM domain kinase 2 = LIM domain kinase 2 (Homo sapiens, UniProt P53671)
Chain of LIM domain kinase 2 (P53671 whole entry, the tested form may be a part): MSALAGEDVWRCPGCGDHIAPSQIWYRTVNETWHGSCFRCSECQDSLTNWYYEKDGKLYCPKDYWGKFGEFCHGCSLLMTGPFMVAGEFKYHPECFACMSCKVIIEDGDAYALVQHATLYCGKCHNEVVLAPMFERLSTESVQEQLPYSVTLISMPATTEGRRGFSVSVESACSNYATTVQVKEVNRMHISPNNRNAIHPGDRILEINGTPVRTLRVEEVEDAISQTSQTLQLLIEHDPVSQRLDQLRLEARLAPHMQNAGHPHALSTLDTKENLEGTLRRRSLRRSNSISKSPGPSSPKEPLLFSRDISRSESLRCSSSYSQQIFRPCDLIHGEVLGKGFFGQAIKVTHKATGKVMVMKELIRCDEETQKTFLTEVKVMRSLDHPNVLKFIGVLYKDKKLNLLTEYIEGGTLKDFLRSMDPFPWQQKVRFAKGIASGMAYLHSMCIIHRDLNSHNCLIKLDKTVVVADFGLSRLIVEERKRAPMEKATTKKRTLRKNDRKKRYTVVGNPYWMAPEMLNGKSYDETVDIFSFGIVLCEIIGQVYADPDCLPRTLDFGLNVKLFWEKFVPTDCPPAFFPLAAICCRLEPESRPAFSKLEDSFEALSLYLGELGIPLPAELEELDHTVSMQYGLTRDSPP

[7] = target: Proto-oncogene tyrosine-protein kinase receptor Ret (Homo sapiens, UniProt P07949)
[8] = target: T2, Serine/threonine-protein kinase 3 (Homo sapiens, UniProt Q13188)
T2 sequence (Q13188 whole entry): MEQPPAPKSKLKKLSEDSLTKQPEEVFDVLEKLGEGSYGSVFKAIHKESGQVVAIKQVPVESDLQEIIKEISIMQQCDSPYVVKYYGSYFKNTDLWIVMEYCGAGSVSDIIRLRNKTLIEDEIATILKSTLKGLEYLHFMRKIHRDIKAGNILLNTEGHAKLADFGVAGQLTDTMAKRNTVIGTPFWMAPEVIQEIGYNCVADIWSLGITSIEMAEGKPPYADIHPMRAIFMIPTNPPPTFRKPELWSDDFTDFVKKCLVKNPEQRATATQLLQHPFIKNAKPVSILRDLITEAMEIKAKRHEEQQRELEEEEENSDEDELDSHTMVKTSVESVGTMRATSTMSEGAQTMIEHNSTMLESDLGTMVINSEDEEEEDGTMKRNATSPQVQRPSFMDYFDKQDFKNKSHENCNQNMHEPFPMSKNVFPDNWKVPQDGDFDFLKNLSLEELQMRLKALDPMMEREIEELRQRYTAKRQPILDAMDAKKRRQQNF

[9] = target: T3, General transcription and DNA repair factor IIH helicase subunit XPD (Homo sapiens, UniProt P18074); conditions: read-out: Kd apparent; k-562, colo 205, sk-n-be(2) and mv-4-11
T3 sequence (P18074 whole entry): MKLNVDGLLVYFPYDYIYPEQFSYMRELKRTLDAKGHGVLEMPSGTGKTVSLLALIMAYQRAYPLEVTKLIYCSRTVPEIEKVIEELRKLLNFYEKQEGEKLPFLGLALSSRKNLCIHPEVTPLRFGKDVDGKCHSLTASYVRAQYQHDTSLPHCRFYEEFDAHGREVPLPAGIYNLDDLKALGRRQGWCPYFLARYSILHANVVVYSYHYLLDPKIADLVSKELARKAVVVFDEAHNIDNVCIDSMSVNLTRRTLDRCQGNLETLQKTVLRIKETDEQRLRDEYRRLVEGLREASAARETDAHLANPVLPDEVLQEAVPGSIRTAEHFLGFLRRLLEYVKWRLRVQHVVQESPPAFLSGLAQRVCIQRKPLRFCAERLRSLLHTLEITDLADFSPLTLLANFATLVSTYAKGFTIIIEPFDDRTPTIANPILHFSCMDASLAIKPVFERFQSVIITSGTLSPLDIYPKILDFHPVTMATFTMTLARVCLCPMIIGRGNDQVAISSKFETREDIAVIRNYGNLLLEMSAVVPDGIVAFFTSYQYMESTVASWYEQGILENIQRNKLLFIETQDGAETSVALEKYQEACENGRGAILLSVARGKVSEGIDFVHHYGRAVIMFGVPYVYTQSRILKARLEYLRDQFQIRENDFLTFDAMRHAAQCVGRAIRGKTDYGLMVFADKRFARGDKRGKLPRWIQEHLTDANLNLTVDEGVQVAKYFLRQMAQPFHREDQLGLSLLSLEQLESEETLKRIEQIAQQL

[10] = target: Mitogen-activated protein kinase kinase kinase kinase 1 (Homo sapiens, UniProt Q92918)
Chain of Mitogen-activated protein kinase kinase kinase kinase 1 (Q92918 whole entry): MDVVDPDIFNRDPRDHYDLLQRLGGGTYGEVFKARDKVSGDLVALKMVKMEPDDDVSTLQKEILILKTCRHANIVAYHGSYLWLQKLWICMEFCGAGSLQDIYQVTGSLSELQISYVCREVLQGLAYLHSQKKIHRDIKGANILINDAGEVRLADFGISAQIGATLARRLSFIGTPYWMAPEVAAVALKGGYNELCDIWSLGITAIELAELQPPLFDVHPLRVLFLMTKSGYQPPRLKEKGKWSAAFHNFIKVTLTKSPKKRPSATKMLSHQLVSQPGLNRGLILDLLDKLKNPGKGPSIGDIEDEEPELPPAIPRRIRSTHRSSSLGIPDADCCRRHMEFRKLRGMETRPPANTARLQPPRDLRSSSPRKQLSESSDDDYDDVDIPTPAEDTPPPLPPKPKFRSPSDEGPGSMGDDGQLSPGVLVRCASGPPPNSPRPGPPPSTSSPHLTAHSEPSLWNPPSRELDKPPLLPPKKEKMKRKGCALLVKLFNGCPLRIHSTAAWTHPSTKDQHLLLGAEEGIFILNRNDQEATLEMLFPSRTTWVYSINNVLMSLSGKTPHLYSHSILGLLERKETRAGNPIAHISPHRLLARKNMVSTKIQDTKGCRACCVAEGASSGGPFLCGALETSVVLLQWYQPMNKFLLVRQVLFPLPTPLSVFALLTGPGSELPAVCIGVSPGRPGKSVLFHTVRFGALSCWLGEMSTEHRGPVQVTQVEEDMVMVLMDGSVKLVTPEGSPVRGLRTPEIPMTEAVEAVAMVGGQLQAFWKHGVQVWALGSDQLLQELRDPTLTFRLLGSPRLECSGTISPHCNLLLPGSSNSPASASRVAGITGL
Note: in the data inactive means no Kd found up to 30 µM.

Chain of Cyclin-dependent kinase 17 (Q00537 whole entry): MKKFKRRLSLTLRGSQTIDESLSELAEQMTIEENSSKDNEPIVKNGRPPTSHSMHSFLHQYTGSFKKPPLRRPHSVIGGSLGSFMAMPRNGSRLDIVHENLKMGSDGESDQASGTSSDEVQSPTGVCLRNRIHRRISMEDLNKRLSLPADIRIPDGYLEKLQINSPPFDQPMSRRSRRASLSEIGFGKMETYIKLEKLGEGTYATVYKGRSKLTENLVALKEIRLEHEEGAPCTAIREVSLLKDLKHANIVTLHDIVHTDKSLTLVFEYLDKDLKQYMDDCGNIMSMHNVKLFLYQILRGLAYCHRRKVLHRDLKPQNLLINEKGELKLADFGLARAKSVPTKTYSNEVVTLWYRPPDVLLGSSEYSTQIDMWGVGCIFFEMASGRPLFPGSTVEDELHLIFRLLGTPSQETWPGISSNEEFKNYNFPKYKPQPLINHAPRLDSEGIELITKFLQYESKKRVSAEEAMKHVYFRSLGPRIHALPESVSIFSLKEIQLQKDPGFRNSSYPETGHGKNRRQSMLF
Chain of MAP kinase-activated protein kinase 2 (P49137 whole entry): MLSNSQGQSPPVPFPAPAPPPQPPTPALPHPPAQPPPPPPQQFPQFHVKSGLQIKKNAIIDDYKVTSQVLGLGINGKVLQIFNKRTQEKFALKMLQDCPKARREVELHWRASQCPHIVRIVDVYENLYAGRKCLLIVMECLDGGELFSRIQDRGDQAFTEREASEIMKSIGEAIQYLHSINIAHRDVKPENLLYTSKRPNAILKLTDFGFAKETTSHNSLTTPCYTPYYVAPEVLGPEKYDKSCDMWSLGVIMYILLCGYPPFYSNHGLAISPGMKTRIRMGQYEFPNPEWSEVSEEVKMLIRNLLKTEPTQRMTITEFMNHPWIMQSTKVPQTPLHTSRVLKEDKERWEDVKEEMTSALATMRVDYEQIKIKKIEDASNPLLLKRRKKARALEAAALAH

| Kd [1] | Kd [2] | Kd [3] | Kd [4] | Kd [5] | Kd [6] | Kd (LIM domain kinase 2) | Kd [7] | Kd [8] | Kd [9] | Kd [10] | Compound |
| --- | --- | --- | --- | --- | --- | --- | --- | --- | --- | --- | --- |
| > 30 µM (inactive) | > 30 µM (inactive) | > 30 µM (inactive) | > 30 µM (inactive) | > 30 µM (inactive) | > 30 µM (inactive) | > 30 µM (inactive) | 0.111 µM (active) | > 30 µM (inactive) | > 30 µM (inactive) | > 30 µM (inactive) | N#CC1(c2ccc(NC(=O)c3cccnc3NCc3ccncc3)cc2)CCCC1 [RIVOCERANIB] |
| > 30 µM (inactive) | > 30 µM (inactive) | > 30 µM (inactive) | > 30 µM (inactive) | > 30 µM (inactive) | > 30 µM (inactive) | > 30 µM (inactive) | > 30 µM (inactive) | > 30 µM (inactive) | > 30 µM (inactive) | > 30 µM (inactive) | O=c1[nH]ccc2cc(OC3CCNCC3)ccc12 [SAR-407899 FREE BASE] |
| 1.52 µM (active) | > 30 µM (inactive) | > 30 µM (inactive) | > 30 µM (inactive) | > 30 µM (inactive) | > 30 µM (inactive) | > 30 µM (inactive) | 0.064 µM (active) | > 30 µM (inactive) | > 30 µM (inactive) | > 30 µM (inactive) | COc1cc2c(Nc3ccc(Cl)c(Cl)c3F)ncnc2cc1OC[C@@H]1C[C@@H]2CN(C)C[C@@H]2C1 [TESEVATINIB] |
| > 30 µM (inactive) | > 30 µM (inactive) | > 30 µM (inactive) | > 30 µM (inactive) | > 30 µM (inactive) | > 30 µM (inactive) | > 30 µM (inactive) | > 30 µM (inactive) | > 30 µM (inactive) | > 30 µM (inactive) | > 30 µM (inactive) | O=C(Cc1ccc(-c2ccc(OCCN3CCOCC3)cc2)cn1)NCc1ccccc1 [TIRBANIBULIN] |
| > 30 µM (inactive) | > 30 µM (inactive) | > 30 µM (inactive) | > 30 µM (inactive) | > 30 µM (inactive) | > 30 µM (inactive) | > 30 µM (inactive) | > 30 µM (inactive) | > 30 µM (inactive) | > 30 µM (inactive) | > 30 µM (inactive) | O=C1NC(=O)[C@@H](c2cn3c4c(cccc24)CCC3)[C@@H]1c1c[nH]c2ccccc12 [TIVANTINIB] |

Further lines, the compound ahead of its results:

| Compound | Kd [1] | Kd [2] | Kd [3] | Kd [4] | Kd [5] | Kd [6] | Kd (LIM domain kinase 2) | Kd [7] | Kd [8] | Kd [9] | Kd [10] |
| --- | --- | --- | --- | --- | --- | --- | --- | --- | --- | --- | --- |
| CO[C@H]1C[C@@H]2CC[C@@H](C)[C@@](O)(O2)C(=O)C(=O)N2CCCC[C@H]2C(=O)O[C@H]([C@H](C)C[C@@H]2CC[C@@H](OP(C)(C)=O)[C@H](OC)C2)CC(=O)[C@H](C)/C=C(\C)[C@@H](O)[C@@H](OC)C(=O)[C@H](C)C[C@H](C)/C=C/C=C/C=C/1C [RIDAFOROLIMUS] | > 30 µM (inactive) | > 30 µM (inactive) | > 30 µM (inactive) | > 30 µM (inactive) | > 30 µM (inactive) | > 30 µM (inactive) | > 30 µM (inactive) | > 30 µM (inactive) | > 30 µM (inactive) | > 30 µM (inactive) | > 30 µM (inactive) |
| CN1CCN(CCOc2cc(OC3CCOCC3)c3c(Nc4c(Cl)ccc5c4OCO5)ncnc3c2)CC1 [SARACATINIB] | > 30 µM (inactive) | > 30 µM (inactive) | > 30 µM (inactive) | > 30 µM (inactive) | > 30 µM (inactive) | > 30 µM (inactive) | > 30 µM (inactive) | 0.178 µM | > 30 µM (inactive) | > 30 µM (inactive) | > 30 µM (inactive) |
| Cn1cc(-c2cnn3c(N)c(Br)c([C@@H]4CCCNC4)nc23)cn1 [SCH-900776] | > 30 µM (inactive) | > 30 µM (inactive) | > 30 µM (inactive) | > 30 µM (inactive) | 4.62 µM (active) | > 30 µM (inactive) | > 30 µM (inactive) | 2.55 µM | > 30 µM (inactive) | > 30 µM (inactive) | > 30 µM (inactive) |
| CO[C@H]1C[C@@H]2CC[C@@H](C)[C@@](O)(O2)C(=O)C(=O)N2CCCC[C@H]2C(=O)O[C@H]([C@H](C)C[C@@H]2CC[C@@H](O)[C@H](OC)C2)CC(=O)[C@H](C)/C=C(\C)[C@@H](O)[C@@H](OC)C(=O)[C@H](C)C[C@H](C)/C=C/C=C/C=C/1C [SIROLIMUS] | > 30 µM (inactive) | > 30 µM (inactive) | > 30 µM (inactive) | > 30 µM (inactive) | > 30 µM (inactive) | > 30 µM (inactive) | > 30 µM (inactive) | > 30 µM (inactive) | > 30 µM (inactive) | > 30 µM (inactive) | > 30 µM (inactive) |
| CO[C@H]1C[C@@H]2CC[C@@H](C)[C@@](O)(O2)C(=O)C(=O)N2CCCC[C@H]2C(=O)O[C@H]([C@H](C)C[C@@H]2CC[C@@H](OC(=O)C(C)(CO)CO)[C@H](OC)C2)CC(=O)[C@H](C)/C=C(\C)[C@@H](O)[C@@H](OC)C(=O)[C@H](C)C[C@H](C)/C=C/C=C/C=C/1C [TEMSIROLIMUS] | > 30 µM (inactive) | > 30 µM (inactive) | > 30 µM (inactive) | > 30 µM (inactive) | > 30 µM (inactive) | > 30 µM (inactive) | > 30 µM (inactive) | > 30 µM (inactive) | > 30 µM (inactive) | > 30 µM (inactive) | > 30 µM (inactive) |
| C[C@@H](NC(=O)c1ncnc(N)c1Cl)c1ncc(C(=O)Nc2cc(C(F)(F)F)c(Cl)cn2)s1 [TOVORAFENIB] | > 30 µM (inactive) | > 30 µM (inactive) | > 30 µM (inactive) | > 30 µM (inactive) | > 30 µM (inactive) | 4.41 µM | > 30 µM (inactive) | > 30 µM (inactive) | > 30 µM (inactive) | > 30 µM (inactive) | > 30 µM (inactive) |
